In US20240166681A1, “3'3' CYCLIC DINUCLEOTIDES CONTAINING ISONUCLEOTIDIC UNITS” (INSTITUTE OF ORGANIC CHEMISTRY AND BIOCHEMISTRY AS CR, V. …, priority 2021, published 2024):

Molecular target: T1, AQ STING (G230A-R293Q) (Homo sapiens, UniProt Q86WV6, G230A/H232R/R293Q)
T1 construct: truncated human WT STING or AQ STING (amino acid residues 140-343); 8xHis (N, cleaved yes); SUMO (N, cleaved yes); made in house; host or cells: E. coli Rosetta-gami B (DE3)
Assay: Differential scanning fluorimetry with AQ STING
Format: binding
Conditions: thermal shift, truncated human AQ STING 0.1 mg/ml, 150 μM CDN; for ΔTm at 150 µM: read-out: DSF ΔTm AQ STING
Text: Both WT and AQ human STING (G230A-R293Q) cDNA were amplified by the use of PCR (Phusion® High-Fidelity DNA Polymerase, cat. #M0530S, NEB, Ipswich, USA) using oligonucleotides hSTING140-BamH-For ([…]) (SEQ ID NO:5) and hSTING379-Not-Rev3 ([…]) (SEQ ID NO:6) from pUNO1-hSTING-WT (cat. #puno1-hstingwt, InvivoGen, San Diego, USA) and pUNO1-hSTING-HAQ plasmids (punol-hsting-haq, InvivoGen, San Diego, USA). Purified PCR products were cleaved with restriction enzymes BamHI (cat. #R0136S, NEB, Ipswich, USA) and Notl (cat. #R0189S, NEB, Ipswich, USA) and cloned into the pSUMO vector linearized with the identical enzymes. Plasmid pSUMO was created by introducing 8-His-SUMO sequence between Ndel and BamHI sites of pHis-parallel2 plasmid (Clontech, Moutain View, USA). pSUMO-STING WT or pSUMO-STING AQ plasmids thus encoded truncated human WT STING or AQ STING (amino acid residues 140-343) with N-terminal 8xHis and SUMO tag.
The recombinant WT STING and AQ STING proteins were overexpressed in Rosetta-gami B (DE3) competent cells (cat. #71136-3, Merck Millipore, Billerica, USA). Bacterial pellets were re-suspended in ice-cold lysis buffer containing 50 mmol·l^−1 TrisCl (cat. #T1503, Sigma Aldrich, Czech Republic) pH 8.0, 300 mmol·l^−1 NaCl, 3 mmol·l^−1 β-mercaptoethanol (cat. #M6250, Sigma Aldrich, Czech Republic), 10% glycerol (cat. #G5516, Sigma Aldrich, Czech Republic) and 20 mmol·l^−1 imidazole (cat. #15513, Sigma Aldrich, Czech Republic) using Dounce homogenizer. DNase I (cat. #D5025, Sigma Aldrich, Czech Republic) and RNase A (cat. #R6513, Sigma Aldrich, Czech Republic) were added (final concentration 50 μg/ml) together with MgCl2 (final concentration 5 mmol·l^−1) to the homogenate and bacteria were lysed using French Press G-M™ High-Pressure Cell Press Homogenizer (1500 psi, 3 cycles). Lysate was spun 30,000 g for 20 minutes and supernatant was gently stirred with Ni-NTA resin (cat. #745400.25 Macherey-Nagel, Duren, Germany) for 30 minutes. The resin was poured into a chromatography column, washed with 50 ml buffer A (50 mmol·l^−1 TrisCl (pH 8.0), 800 mmol·l^−1 NaCl, 3 mmol·l^−1 (3-mercaptol; 10% glycerol; 20 mmol·l^−1 imidazole) and 8-His-SUMO tagged STING proteins were eluted with 15 ml buffer A containing 300 mmol·l^−1 imidazole. The eluted proteins were cleaved with recombinant SUMO protease (80 μg/ml of protein solution, cat. #12588018, ThermoFisher, Waltham, USA). The proteins were further purified by size exclusion chromatography using HiLoad 16/60 Superdex 75 (cat. #28989333, GE Healthcare Bio-Sciences, Pittsburgh, USA) in 50 mmol·l^−1 Tris Cl buffer pH 7.4 containing 150 mmol·l^−1 NaCl, and 10% glycerol. Proteins were concentrated with Amicon® Ultra-15 10 K device (cat. #UFC901008, Merck Millipore, Billerica, USA) and flash frozen in liquid N2.
WT and AQ allelic forms of STING protein were diluted to the final concentration 0.1 mg/ml in 100 mmol·l^−1 TrisCl buffer pH 7.4 containing, 150 mmol·l^−1 NaCl, 1:500 SYPRO Orange (cat. #S6650, ThermoFisher, Waltham, USA) and 150 μM CDN or water. 20 μL solutions of the reaction mixtures were pipetted in triplicates into 96 well optical reaction plates and thermal denaturation of samples were performed on real time PCR cycler (LightCycler® 480 Instrument II—Roche, Basel, Switzerland). The first derivative of the thermal denaturation curves was performed to calculate denaturing temperatures of STING—CDN complexes and STING apoproteins. The thermal shift for each CDN was calculated by subtracting the average denaturing temperature of STING apoprotein from the average denaturing temperature of STING CDN complex.

T1 sequence (Q86WV6 140-343 G230A/H232R/R293Q): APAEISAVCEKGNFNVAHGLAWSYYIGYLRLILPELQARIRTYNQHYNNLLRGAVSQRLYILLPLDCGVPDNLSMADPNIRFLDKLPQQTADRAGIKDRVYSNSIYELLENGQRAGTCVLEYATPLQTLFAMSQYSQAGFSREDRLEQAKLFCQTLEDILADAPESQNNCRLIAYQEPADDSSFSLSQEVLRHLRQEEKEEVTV

ΔTm at 150 µM [°C]	DSF ΔTm AQ STING [°C]	SMILES
16.9		Nc1nc2c(ncn2[C@@H]2O[C@@H]3COP(=O)(O)O[C@H]4[C@H](n5cnc6c(N)ncnc65)CO[C@@H]4COP(=O)(O)O[C@H]3[C@H]2F)c(=O)[nH]1 [Compound 24, (1S,6R,8R,9R,10R,15R,18R)-8-(2-amino-6-oxo-6,9-dihydro-1H-purin-9-yl)-18-(6-amino-9H-purin-9-yl)-9-fluoro-3,12-dihydroxy-2,4,7,11,13,16-hexaoxa-3λ^5,12λ^5-diphosphatricyclo[13.3.0.0^6,10]octadecane-3,12-dione]
13.3		Nc1ncnc2c1ncn2[C@@H]1CO[C@@H]2COP(=O)(O)O[C@H]3[C@@H](F)[C@H](n4cnc5c(N)ncnc54)O[C@@H]3COP(=O)(O)O[C@@H]12 [Compound 28, (1S,6R,8R,9R,10R,15R,18R)-8,18-bis(6-amino-9H-purin-9-yl)-9-fluoro-3,12-dihydroxy-2,4,7,11,13,16-hexaoxa-3λ^5,12λ^5-diphosphatricyclo[13.3.0.0^6,10]octadecane-3,12-dione]
9.2		Nc1ncnc2c1ncn2[C@@H]1CC[C@@H]2COP(=O)(O)O[C@H]3[C@@H](F)[C@H](n4cnc5c(N)ncnc54)O[C@@H]3COP(=O)(O)O[C@H]21 [Compound 34, (1R,6R,8R,9R,10R,15R,18R)-8,18-bis(6-amino-9H-purin-9-yl)-9-fluoro-3,12-dihydroxy-2,4,7,11,13-pentaoxa-3λ^5,12λ^5-diphosphatricyclo[13.3.0.0^6,10]octadecane-3,12-dione]
9.3		Nc1ncnc2c1ncn2[C@@H]1CO[C@@H]2COP(=O)(O)O[C@H]3C[C@H](n4cnc5c(N)ncnc54)O[C@@H]3COP(=O)(O)O[C@@H]12 [Compound 50, (1S,6R,8R,10S,15R,18R)-8,18-bis(6-amino-9H-purin-9-yl)-3,12-dihydroxy-2,4,7,11,13,16-hexaoxa-3λ^5,12λ^5-diphosphatricyclo[13.3.0.0^6,10]octadecane-3,12-dione]
15.8		Nc1nc2c(ncn2[C@@H]2CO[C@@H]3COP(=O)(O)O[C@H]4[C@@H](F)[C@H](n5cnc6c(N)ncnc65)O[C@@H]4COP(=O)(O)O[C@@H]23)c(=O)[nH]1 [Compound 51, (1S,6R,8R,9R,10R,15R,18R)-18-(2-amino-6-oxo-6,9-dihydro-1H-purin-9-yl)-8-(6-amino-9H-purin-9-yl)-9-fluoro-3,12-dihydroxy-2,4,7,11,13,16-hexaoxa-3λ^5,12λ^5-diphosphatricyclo[13.3.0.0^6,10]octadecane-3,12-dione]
10.7		Nc1nc2c(ncn2[C@@H]2CO[C@@H]3COP(=O)(O)O[C@H]4[C@H](n5cnc6c(N)ncnc65)CO[C@@H]4COP(=O)(O)O[C@@H]23)c(=O)[nH]1 [Compound 52, (1S,6R,9R,10S,15R,18R)-9-(2-amino-6-oxo-6,9-dihydro-1H-purin-9-yl)-18-(6-amino-9H-purin-9-yl)-3,12-dihydroxy-2,4,7,11,13,16-hexaoxa-3λ^5,12λ^5-diphosphatricyclo[13.3.0.0^6,10]octadecane-3,12-dione]
11.5		Nc1nc2c(ncn2[C@@H]2CO[C@@H]3COP(=O)(O)O[C@H]4C[C@H](n5cnc6c(N)ncnc65)O[C@@H]4COP(=O)(O)O[C@@H]23)c(=O)[nH]1 [Compound 53, (1S,6R,8R,10S,15R,18R)-18-(2-amino-6-oxo-6,9-dihydro-1H-purin-9-yl)-8-(6-amino-9H-purin-9-yl)-3,12-dihydroxy-2,4,7,11,13,16-hexaoxa-3λ^5,12λ^5-diphosphatricyclo[13.3.0.0^6,10]octadecane-3,12-dione]
17.2		Nc1ncnc2c1ncn2[C@@H]1CO[C@@H]2COP(=O)(S)O[C@H]3[C@@H](F)[C@H](n4cnc5c(N)ncnc54)O[C@@H]3COP(=O)(S)O[C@@H]12 (stereo partly drawn) [Compound 54, (1S,6R,8R,9R,10R,15R,18R)-8,18-bis(6-amino-9H-purin-9-yl)-9-fluoro-3,12-disulfanyl-2,4,7,11,13,16-hexaoxa-3λ^5,12λ^5-diphosphatricyclo[13.3.0.0^6,10]octadecane-3,12-dione]
	20.0	Nc1ncnc2c1ncn2[C@@H]1CO[C@@H]2COP(=O)(S)O[C@H]3[C@@H](F)[C@H](n4cnc5c(N)ncnc54)O[C@@H]3COP(=O)(S)O[C@@H]12 (stereo partly drawn) [Compound 55, (1S,6R,8R,9R,10R,15R,18R)-8,18-bis(6-amino-9H-purin-9-yl)-9-fluoro-3,12-disulfanyl-2,4,7,11,13,16-hexaoxa-3λ^5,12λ^5-diphosphatricyclo[13.3.0.0^6,10]octadecane-3,12-dione]
